Measurements published in PMC11324666, “Two novel in vitro assays to screen chemicals for their capacity to inhibit thyroid hormone transmembrane transporter proteins OATP1C1 and OAT4” (Archives of Toxicology, 2024).
Where two headings read alike, the source gives them in different places.

Biological target: T1, OATP1C1 (Homo sapiens, UniProt Q9NYB5)
T1 construct: host or cells: CHO-K1
T1 sequence (Q9NYB5 1-712): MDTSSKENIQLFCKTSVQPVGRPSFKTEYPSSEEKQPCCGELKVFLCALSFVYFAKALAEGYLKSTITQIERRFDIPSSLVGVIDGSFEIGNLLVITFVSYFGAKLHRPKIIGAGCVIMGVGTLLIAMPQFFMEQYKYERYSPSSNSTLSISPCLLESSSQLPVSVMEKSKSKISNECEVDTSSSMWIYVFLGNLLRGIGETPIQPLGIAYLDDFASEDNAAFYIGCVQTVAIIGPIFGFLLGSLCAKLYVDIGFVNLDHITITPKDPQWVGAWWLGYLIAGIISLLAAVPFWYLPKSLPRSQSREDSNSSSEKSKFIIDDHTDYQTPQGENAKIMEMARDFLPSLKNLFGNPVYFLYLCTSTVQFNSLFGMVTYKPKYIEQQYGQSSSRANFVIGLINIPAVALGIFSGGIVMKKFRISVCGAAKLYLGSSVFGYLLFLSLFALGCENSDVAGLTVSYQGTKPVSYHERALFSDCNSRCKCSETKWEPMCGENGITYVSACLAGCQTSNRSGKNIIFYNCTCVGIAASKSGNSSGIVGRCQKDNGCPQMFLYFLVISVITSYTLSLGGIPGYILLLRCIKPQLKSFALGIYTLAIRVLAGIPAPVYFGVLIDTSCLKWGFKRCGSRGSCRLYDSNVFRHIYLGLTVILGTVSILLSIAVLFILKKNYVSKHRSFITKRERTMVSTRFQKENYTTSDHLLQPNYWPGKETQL
Experiment: CHO-K1 OATP1C1 TH uptake assay with 125I-T4 tracer
Type: cell-based
Details: for 125I-T4 uptake compared to the vehicle control (range finding): single concentration 10 or 100 µM, below 80% = positive hit
Method: MDCK-OAT4 and MDCK-DEST cells were cultured in DMEM:F12 (L-glutamine, 15 mM HEPES) (Gibco) supplemented with (100 µg/mL penicillin + 100 µg/mL streptomycin), 10% fetal calf serum (Gibco) and 2 µg/mL blasticidin (Sigma). CHO-K1 OATP1C1 or WT cells were cultured in F12 nutrient mix (Gibco) supplemented with (100 µg/mL penicillin + 100 µg/mL streptomycin), 10% fetal calf serum (Gibco) and […] G418 (Sigma). All cell cultures were incubated at 37 °C with 5% CO2 saturation until 80% confluency. MDCK-OAT4 and MDCK-DEST cells were seeded in 96 wells plate at a density of 4 × 10^5 cells in 100 µL medium per well and incubated for 24 h before the start of the MDCK-OAT4 TH uptake assay. CHO-K1 OATP1C1 and WT cells were seeded in 96 wells plate at a density of 3 × 10^5 cells in 100 µL medium per well 72 h before the CHO-K1 OATP1C1 TH uptake assay. Medium from CHO-K1 OATP1C1 or WT assay plates was changed to serum-free F12 medium containing 5 mM sodium-butyrate 24 h before start of the CHO-K1 OATP1C1 TH uptake assay to increase transfected expression of SV-40 promotor plasmids.
Subsequently 10 µL of a tenfold stock of test compound in uptake buffer (solvent concentration 1% v/v) was added to each well. […] Cells were exposed at 37 °C for 20 min (MDCK-OAT4) or 30 min (CHO-K1 OATP1C1), unless stated differently. After exposure, cells were immediately washed with ice-cold PBS supplemented with 0.1% bovine serum albumin (BSA). Subsequently, cells were lysed in 50 µL of 0.1 M NaOH under continuous shaking at room temperature. After 20 min, cell lysates were manually transferred into separate 5 mL polypropylene tubes. One tube was also prepared with 10 µL of the T4 tracer solution. Radioactivity was measured in a Wizard^2 gamma counter (Perkin Elmer).
For the CHO-K1 OATP1C1 TH uptake assay total of 29 chemicals (Table 1) were selected for the EDC screening based on available literature data. […] The same chemicals were selected for the MDCK-OAT4 TH uptake assay, with the exception of BPF, VRP and TCS. […] The THTMT TH uptake assay was then performed as described earlier. […] A concentration of 100 µM ICG was used as a reference chemical for OATP1C1 and 100 µM LESI for OAT4. At least three independent experiments were performed for each chemical.
Raw values were normalized to the total amount of radioactivity in the T4 tracer solution. These values were expressed as a percentage of total radioactivity added (or uptake percentage) and used for all further data analysis. Statistically significant differences between the T4 uptake of transfected and wild type cells, in the presence or absence of inhibitor, were determined by two-way ANOVA (α = 5%, two-sided). […] In brief, uptake values were normalized to the median response of the vehicle and positive controls for each plate. […] Statistical analysis were performed using GraphPad Prism version 8 for Windows (GraphPad Software, San Diego, California USA) and SAS 9.3 (SAS Institute, Cary NC).

[1] = concentration that inhibits 125I-T4 uptake by 20%, 10 nM T4, 30 min, brackets = 95% CI

SMILES	T4 uptake inhibition BMC20 (M), [CI] [1]	125I-T4 uptake compared to the vehicle control (range finding) (10 nM T4, 30 min)	further results
O=c1c(O)c(-c2ccc(O)c(O)c2)oc2cc(O)cc(O)c12 [Quercetin]	3.94E−08 [4.41E−09; 3.51E−07] M		
CCCN(CCC)S(=O)(=O)c1ccc(C(=O)O)cc1 [Probenecid, reference compound]	6.66E−07 [1.24E−07; 3.57E−06] M		
Oc1c(Cl)c(Cl)c(Cl)c(Cl)c1Cl [Pentachlorophenol]			T4 uptake inhibition BMC20 (M), [CI]: 8.81E−08 [5.80E−08; 1.34E−07] M
O=S(=O)(O)C(F)(F)C(F)(F)C(F)(F)C(F)(F)C(F)(F)C(F)(F)C(F)(F)C(F)(F)F [Perfluorooctanesulfonic acid]	4.03E−07 [2.32E−07; 7.00E−07] M	below 80%	
O=C(O)C(F)(F)C(F)(F)C(F)(F)C(F)(F)C(F)(F)C(F)(F)C(F)(F)F [Perfluorooctanoic acid]	2.94E−06 [1.04E−06; 8.36E−06] M		
COc1cc([C@@H]2Oc3c(O)cc([C@H]4Oc5cc(O)cc(O)c5C(=O)[C@@H]4O)cc3[C@H]2CO)ccc1O [Silychristin, reference compound]	3.78E−06 [1.54E−06; 9.27E−06] M	below 80%	
CO[C@H]1/C=C/O[C@@]2(C)Oc3c(C)c(O)c4c(O)c(c(/C=N/N5CCN(C)CC5)c(O)c4c3C2=O)NC(=O)/C(C)=C\C=C\[C@H](C)[C@H](O)[C@@H](C)[C@@H](O)[C@@H](C)[C@H](OC(C)=O)[C@@H]1C [Rifampicin, reference compound]	4.06E−05 [2.58E−05; 6.38E−05] M		
O=S(=O)([O-])c1cc(S(=O)(=O)O)ccc1C1=c2cc3c4c(c2Oc2c1cc1c5c2CCCN5CCC1)CCC[N+]=4CCC3 [Sulforhodamine 101, reference compound]	2.86E−06 [1.29E−06; 6.34E−06] M	below 80%	
Oc1ccc(Cc2ccc(O)cc2)cc1 [Bisphenol F, Bisphenol-F]	4.49E−05 [2.80E−05; 7.20E−05] M	below 80%	
Oc1ccc(C(c2ccc(O)cc2)(C(F)(F)F)C(F)(F)F)cc1 [Bisphenol AF, Bisphenol-AF]	3.52E−06 [2.03E−06; 6.11E−06] M		
CC(C)(c1cc(Br)c(O)c(Br)c1)c1cc(Br)c(O)c(Br)c1 [Tetrabromobisphenol A, Tetrabromobisphenol-A]	2.03E−09 [1.28E−09; 3.22E−09] M	below 80%	BMC20 (20% reduction in T4 uptake): 0.0020 µM
O=C1OC(c2ccc(O)c(S(=O)(=O)O)c2)(c2ccc(O)c(S(=O)(=O)O)c2)c2c(Br)c(Br)c(Br)c(Br)c21 [Bromosulfophthalein, reference compound]	8.72E−07 [5.70E−07; 1.33E−06] M	below 80%	
CC1(C)C(/C=C/C=C/C=C/C=C2\N(CCCCS(=O)(=O)O)c3ccc4ccccc4c3C2(C)C)=[N+](CCCCS(=O)(=O)[O-])c2ccc3ccccc3c21 [Indocyanine green, reference compound]	3.60E−07 [2.17E−07; 5.97E−07] M		T4 uptake on co-exposure to known inhibitor (100 µM, t = 40 min, versus CHO-K1 wildtype cells): decreased back to control
